According to US12146155B2, “Method for constructing human pluripotent stem cell-derived liver organoid having enhanced drug metabolic potential and liver organoid constructed by same method” (KOREA RESEARCH INSTITUTE OF CHEMICAL TECHNOLOGY, priority 2021, dated 2024):
Blank lines part the entries; values can stand above or below the compound they belong to.

Key:
[1] = tested on: hiPSC-CM not cultured with liver organoids; assay: MEA electrophysiology of hiPSC-CMs without liver organoids; assay type: cell-based, human
Experimental: (§1) Specifically, the electrical activity of Cardiosight®-S (NEXEL Co., South Korea), the hiPSC-CM, was measured using an MEA system (Axion BioSystems, Maestro, US) at 37° C. and perfused with 5% CO2, 20% O2, and 75% N2. The hiPSC-CMs were first seeded in a 12-well MEA plate at the density of 4×10^4 cells per well and maintained for 7 days in a cardiomyocyte culture medium provided by NEXEL Co. to stabilize with half-mid changes performed every 2 days. One week later, the culture medium was replaced with a liver organoid differentiation medium (DM). Transwell inserts (Corning) were then placed in each well, and FC-treated S(−)-HO was seeded in the inserts, followed by culture for 3 days. On the day of compound application, the culture medium was completely removed from the wells and inserts and fresh medium was added to ensure the correct volume per well (2 m ? /well total). Cells were allowed to equilibrate for 4 hours, and online parameters were monitored to ensure a stable baseline for at least 40 minutes. The cells were exposed to cyclophosphamide at a single dose per well. After application of the drug or control (0.1% DMSO), field potentials were measured every 5 minutes for 30 seconds for 72 hours. The field potential signals were recorded and analyzed using Axion BioSystems' integrated studio (AxIS) software to measure the beating frequency and field potential duration. […]

HepG2 = assay: Fimasartan metabolite formation (LC-MS/MS); assay type: in vitro ADME, human; details: 50 μM FMS for 24 hours
Experimental: 70 μ ? of medium was collected at 3, 6, 12 and 24 hours, respectively, and the reaction was quenched by adding 70 μ ? of ice-cold ACN containing 100 nM BR-A-563 as an internal standard. The samples were centrifuged at 16,000 g for 10 minutes at 4° C. and the supernatant was applied to liquid chromatography-tandem mass spectrometry (LC-MS/MS). Data were normalized to protein concentration.

[2] = tested on: hiPSC-derived cardiomyocytes (hiPSC-CMs) co-cultured with FC-treated S(−)-HO
Experimental: as §1

MRP2 = target: T1, MRP2 (Homo sapiens, UniProt Q92887); assay: CDFDA staining of liver organoids with or without transporter inhibitor; assay type: cell-based; details: 2 mM probenecid for 3 hours; D(−)-HO and S(−)-HO
T1 construct: endogenous in cells; host or cells: human iPSC-derived liver organoids (D(−)-HO, S(−)-HO)
T1 sequence (Q92887 whole entry): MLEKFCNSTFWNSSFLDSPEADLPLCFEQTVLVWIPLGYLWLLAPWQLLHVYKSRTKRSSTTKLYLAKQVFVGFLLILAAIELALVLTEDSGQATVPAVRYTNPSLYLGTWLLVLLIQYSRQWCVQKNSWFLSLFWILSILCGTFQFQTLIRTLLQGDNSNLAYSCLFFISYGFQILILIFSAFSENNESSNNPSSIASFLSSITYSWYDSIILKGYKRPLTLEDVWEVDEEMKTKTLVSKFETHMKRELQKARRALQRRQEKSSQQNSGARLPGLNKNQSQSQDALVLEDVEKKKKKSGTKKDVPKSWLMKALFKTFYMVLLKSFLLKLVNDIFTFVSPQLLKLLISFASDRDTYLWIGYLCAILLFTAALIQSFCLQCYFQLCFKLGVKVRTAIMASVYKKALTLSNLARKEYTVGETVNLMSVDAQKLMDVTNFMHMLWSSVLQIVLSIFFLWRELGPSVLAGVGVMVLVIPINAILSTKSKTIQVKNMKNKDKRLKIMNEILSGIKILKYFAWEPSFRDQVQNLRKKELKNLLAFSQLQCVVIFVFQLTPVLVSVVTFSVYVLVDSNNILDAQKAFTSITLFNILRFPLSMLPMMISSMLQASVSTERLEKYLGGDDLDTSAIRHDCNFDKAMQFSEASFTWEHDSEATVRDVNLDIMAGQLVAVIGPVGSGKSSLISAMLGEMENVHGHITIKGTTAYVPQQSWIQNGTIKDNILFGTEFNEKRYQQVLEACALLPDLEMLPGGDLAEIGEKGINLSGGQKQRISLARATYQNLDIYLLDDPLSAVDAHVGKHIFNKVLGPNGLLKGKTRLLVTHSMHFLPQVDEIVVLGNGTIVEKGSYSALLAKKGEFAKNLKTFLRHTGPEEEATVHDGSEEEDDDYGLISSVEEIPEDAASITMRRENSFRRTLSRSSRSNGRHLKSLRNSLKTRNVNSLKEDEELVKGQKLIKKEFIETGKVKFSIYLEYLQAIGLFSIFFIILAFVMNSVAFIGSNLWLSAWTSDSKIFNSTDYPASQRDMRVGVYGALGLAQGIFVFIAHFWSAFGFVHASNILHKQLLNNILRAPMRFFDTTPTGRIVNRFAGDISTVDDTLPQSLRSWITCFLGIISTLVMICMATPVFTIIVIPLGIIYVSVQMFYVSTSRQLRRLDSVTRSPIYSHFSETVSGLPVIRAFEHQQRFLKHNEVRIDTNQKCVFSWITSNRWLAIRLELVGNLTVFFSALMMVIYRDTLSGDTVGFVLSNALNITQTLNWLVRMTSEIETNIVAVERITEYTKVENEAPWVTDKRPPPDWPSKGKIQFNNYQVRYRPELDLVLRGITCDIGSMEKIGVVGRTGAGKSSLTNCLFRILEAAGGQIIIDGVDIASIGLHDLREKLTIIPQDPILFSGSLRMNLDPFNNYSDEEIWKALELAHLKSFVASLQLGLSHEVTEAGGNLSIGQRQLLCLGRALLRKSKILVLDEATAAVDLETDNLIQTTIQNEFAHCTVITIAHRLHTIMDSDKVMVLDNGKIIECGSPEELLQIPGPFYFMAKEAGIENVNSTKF
Experimental: Specifically, the liver organoids were recovered on Matrigel and washed three times with DPBS. For CDFDA (5(6)-carboxy-2′,7′-dichlorofluorescein diacetate) staining, the liver organoids treated with or without 2 mM probenecid for 3 hours were stained with 10 μM CDFDA (Sigma-Aldrich) for 15 minutes at 37° C., 5% CO2. […] All samples were washed three times with DPBS, stained with Hoechst 33342, and observed under an Olympus FV3000 confocal microscope.

HepG2 and 2D HLC = assay: Acetaminophen metabolite formation (LC-MS/MS); assay type: in vitro ADME, human; details: 10 mM APAP
Experimental: Specifically, to measure the metabolites of APAP, reactions were performed in PHH, D-HO, S-HO, HepG2, and 2D HLC treated with 10 mM APAP for 24 hours at 37° C. in 5% CO2. APAP was treated to a final volume of 0.7 m ? per well in each 24-well culture plate. 70 μ ? of medium was collected at 3, 6, 12 and 24 hours, respectively, and the reaction was quenched by adding 70 μ ? of ice-cold ACN containing 100 nM BR-A-563 as an internal standard. The samples were centrifuged at 16,000 g for 10 minutes at 4° C. and the supernatant was applied to liquid chromatography-tandem mass spectrometry (LC-MS/MS). Data were normalized to protein concentration.

- time to spontaneous beating cessation after addition [1]: ≤ 30 min
Compound: CC(C)(C)c1ccc(C(O)CCCN2CCC(C(O)(c3ccccc3)c3ccccc3)CC2)cc1 (stereo not drawn) [terfenadine, Terfenadine]

- APAP-GSH amount of metabolites (HepG2 and 2D HLC): no metabolites were detected
Compound: CC(=O)Nc1ccc(O)cc1 [acetaminophen, Acetaminophen]

The next lines start with the compound.

Compound: CCCCc1nc(C)c(CC(=S)N(C)C)c(=O)n1Cc1ccc(-c2ccccc2-c2nnn[nH]2)cc1 [FMS, Fimasartan]
- production of BR-A-535, a 3-step metabolite of FMS by CYP3A4 (HepG2): not observed

Compound: O=P1(N(CCCl)CCCl)NCCCO1 (stereo not drawn) [CP, Cyclophosphamide]
- field potential duration corrected by beating frequency (FPDcF) ([2]; 250 μM, after 24 and 72 hours): increased
- beating rate ([2]; 250 and 500 μM for 24 and 72 hours, compared to hiPSC-CM alone): significantly reduced

Compound: CCCN(CCC)S(=O)(=O)c1ccc(C(=O)O)cc1 [probenecid]
- MRP2-specific fluorescence (CDFDA) when transporter blocked (MRP2): accumulated in the lumen of the liver organoids
